Reference: US8192962B2, “Processes for detecting toxic substances” (Daikin Industries, Ltd., priority 2001, dated 2012)

System: Transport facilitation protein genes
Experiment: DNA chip mRNA expression in yeast, transport facilitation protein genes (Table 5)
Assay type: cell-based, Saccharomyces cerevisiae S288C
Method in brief: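 S. cerevisiae S288C grown at 25° C in YPD were exposed in log phase for two hours to one toxic chemical at a growth-inhibiting, non-lethal concentration; untreated cells served as control. Poly(A) mRNA was reverse-transcribed with Cy3/Cy5-dUTP and hybridized to a whole-genome yeast DNA chip at 65° C for over 12 hours; values are fluorescence ratios versus untreated.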

In the case of `Oc1cc(Cl)c(Cl)cc1Cl` [(6), 2,4,5-trichlorophenol], the “The level of expressed mRNA in the presence of chemical substance/The level of expressed mRNA in the absence of chemical substance” value (yeast gene YGR281W) was 1.9, the “The level of expressed mRNA in the presence of chemical substance/The level of expressed mRNA in the absence of chemical substance” value (yeast gene YHL035C) was 4.1 and the “The level of expressed mRNA in the presence of chemical substance/The level of expressed mRNA in the absence of chemical substance” value (yeast gene YHL040C) was 7.3. For the same molecule, the “The level of expressed mRNA in the presence of chemical substance/The level of expressed mRNA in the absence of chemical substance” value (yeast gene YHL047C) was 8.4, the “The level of expressed mRNA in the presence of chemical substance/The level of expressed mRNA in the absence of chemical substance” value (yeast gene YHR026W) was 1.3 and the “The level of expressed mRNA in the presence of chemical substance/The level of expressed mRNA in the absence of chemical substance” value (yeast gene YHR092C) was 1.7. The “The level of expressed mRNA in the presence of chemical substance/The level of expressed mRNA in the absence of chemical substance” value (yeast gene YHR094C) was 1.6, the “The level of expressed mRNA in the presence of chemical substance/The level of expressed mRNA in the absence of chemical substance” value (yeast gene YHR175W) was 1.0 and the “The level of expressed mRNA in the presence of chemical substance/The level of expressed mRNA in the absence of chemical substance” value (yeast gene YIL006W) was 0.3. The “The level of expressed mRNA in the presence of chemical substance/The level of expressed mRNA in the absence of chemical substance” value (yeast gene YIL022W) was 1.2, the “The level of expressed mRNA in the presence of chemical substance/The level of expressed mRNA in the absence of chemical substance” value (yeast gene YIL056W) was 1.0 and the “The level of expressed mRNA in the presence of chemical substance/The level of expressed mRNA in the absence of chemical substance” value (yeast gene YIL088C) was 2.2. For the same molecule, the “The level of expressed mRNA in the presence of chemical substance/The level of expressed mRNA in the absence of chemical substance” value (yeast gene YJL034W) was 1.1, the “The level of expressed mRNA in the presence of chemical substance/The level of expressed mRNA in the absence of chemical substance” value (yeast gene YJL212C) was 1.1 and the “The level of expressed mRNA in the presence of chemical substance/The level of expressed mRNA in the absence of chemical substance” value (yeast gene YJL219W) was 1.5. For the same molecule, the “The level of expressed mRNA in the presence of chemical substance/The level of expressed mRNA in the absence of chemical substance” value (yeast gene YJR077C) was 0.9, the “The level of expressed mRNA in the presence of chemical substance/The level of expressed mRNA in the absence of chemical substance” value (yeast gene YJR106W) was 1.2 and the “The level of expressed mRNA in the presence of chemical substance/The level of expressed mRNA in the absence of chemical substance” value (yeast gene YJR121W) was 1.5. For the same molecule, the “The level of expressed mRNA in the presence of chemical substance/The level of expressed mRNA in the absence of chemical substance” value (yeast gene YKL016C) was 0.8, the “The level of expressed mRNA in the presence of chemical substance/The level of expressed mRNA in the absence of chemical substance” value (yeast gene YKL146W) was 1.3 and the “The level of expressed mRNA in the presence of chemical substance/The level of expressed mRNA in the absence of chemical substance” value (yeast gene YKR039W) was 2.8. The “The level of expressed mRNA in the presence of chemical substance/The level of expressed mRNA in the absence of chemical substance” value (yeast gene YKR067W) was 1.8, the “The level of expressed mRNA in the presence of chemical substance/The level of expressed mRNA in the absence of chemical substance” value (yeast gene YLL028W) was 1.7 and the “The level of expressed mRNA in the presence of chemical substance/The level of expressed mRNA in the absence of chemical substance” value (yeast gene YLL055W) was 1.4. The “The level of expressed mRNA in the presence of chemical substance/The level of expressed mRNA in the absence of chemical substance” value (yeast gene YLR081W) was 0.9, the “The level of expressed mRNA in the presence of chemical substance/The level of expressed mRNA in the absence of chemical substance” value (yeast gene YLR295C) was 1.1 and the “The level of expressed mRNA in the presence of chemical substance/The level of expressed mRNA in the absence of chemical substance” value (yeast gene YLR348C) was 1.9. For the same molecule, the “The level of expressed mRNA in the presence of chemical substance/The level of expressed mRNA in the absence of chemical substance” value (yeast gene YLR378C) was 1.2, the “The level of expressed mRNA in the presence of chemical substance/The level of expressed mRNA in the absence of chemical substance” value (yeast gene YMR011W) was 0.6 and the “The level of expressed mRNA in the presence of chemical substance/The level of expressed mRNA in the absence of chemical substance” value (yeast gene YMR058W) was 2.6. The “The level of expressed mRNA in the presence of chemical substance/The level of expressed mRNA in the absence of chemical substance” value (yeast gene YMR162C) was 1.0, the “The level of expressed mRNA in the presence of chemical substance/The level of expressed mRNA in the absence of chemical substance” value (yeast gene YMR203W) was 1.1 and the “The level of expressed mRNA in the presence of chemical substance/The level of expressed mRNA in the absence of chemical substance” value (yeast gene YNL055C) was 2.6. The “The level of expressed mRNA in the presence of chemical substance/The level of expressed mRNA in the absence of chemical substance” value (yeast gene YNL259C) was 3.9, the “The level of expressed mRNA in the presence of chemical substance/The level of expressed mRNA in the absence of chemical substance” value (yeast gene YNR072W) was 0.9 and the “The level of expressed mRNA in the presence of chemical substance/The level of expressed mRNA in the absence of chemical substance” value (yeast gene YOL119C) was 0.9. The “The level of expressed mRNA in the presence of chemical substance/The level of expressed mRNA in the absence of chemical substance” value (yeast gene YOL156W) was 1.2, the “The level of expressed mRNA in the presence of chemical substance/The level of expressed mRNA in the absence of chemical substance” value (yeast gene YOL163W) was 0.5 and the “The level of expressed mRNA in the presence of chemical substance/The level of expressed mRNA in the absence of chemical substance” value (yeast gene YOR035C) was 1.9. For the same molecule, the “The level of expressed mRNA in the presence of chemical substance/The level of expressed mRNA in the absence of chemical substance” value (yeast gene YOR130C) was 1.6, the “The level of expressed mRNA in the presence of chemical substance/The level of expressed mRNA in the absence of chemical substance” value (yeast gene YOR153W) was 7.4 and the “The level of expressed mRNA in the presence of chemical substance/The level of expressed mRNA in the absence of chemical substance” value (yeast gene YOR270C) was 1.8. For the same molecule, the “The level of expressed mRNA in the presence of chemical substance/The level of expressed mRNA in the absence of chemical substance” value (yeast gene YOR273C) was 0.4, the “The level of expressed mRNA in the presence of chemical substance/The level of expressed mRNA in the absence of chemical substance” value (yeast gene YOR316C) was 0.9 and the “The level of expressed mRNA in the presence of chemical substance/The level of expressed mRNA in the absence of chemical substance” value (yeast gene YOR328W) was 2.9. The “The level of expressed mRNA in the presence of chemical substance/The level of expressed mRNA in the absence of chemical substance” value (yeast gene YOR332W) was 1.8, the “The level of expressed mRNA in the presence of chemical substance/The level of expressed mRNA in the absence of chemical substance” value (yeast gene YOR348C) was 0.7 and the “The level of expressed mRNA in the presence of chemical substance/The level of expressed mRNA in the absence of chemical substance” value (yeast gene YPL036W) was 0.7. For the same molecule, the “The level of expressed mRNA in the presence of chemical substance/The level of expressed mRNA in the absence of chemical substance” value (yeast gene YPL134C) was 1.2, the “The level of expressed mRNA in the presence of chemical substance/The level of expressed mRNA in the absence of chemical substance” value (yeast gene YPL265W) was 2.3 and the “The level of expressed mRNA in the presence of chemical substance/The level of expressed mRNA in the absence of chemical substance” value (yeast gene YPL271W) was 3.3. The “The level of expressed mRNA in the presence of chemical substance/The level of expressed mRNA in the absence of chemical substance” value (yeast gene YPR124W) was 2.0, the “The level of expressed mRNA in the presence of chemical substance/The level of expressed mRNA in the absence of chemical substance” value (yeast gene YPR192W) was 0.9 and the “The level of expressed mRNA in the presence of chemical substance/The level of expressed mRNA in the absence of chemical substance” value (yeast gene YPR194C) was 1.5.
